Experimental data published in US20110294836A1, “ARYL GPR119 AGONISTS AND USES THEREOF” (METABOLEX, INC., priority 2008, published 2011).

These molecules were tested against T1, GPR119 (Homo sapiens, UniProt Q8TDV5) (assay: Stimulation of cAMP in CHO cell line stably expressing GPR119 (HTRF cAMP assay)). Conditions: GPR119 stably expressing CHO cells, 30 minutes, relative to maximal activity (100%) of 5-Ethyl-2-{4-[4-(4-tetrazol-1-yl-phenoxymethyl)-thiazol-2-yl]-piperidin-1-yl}-pyrimidine.
T1 construct: expressed in transfected cells
T1 sequence (Q8TDV5 1-335): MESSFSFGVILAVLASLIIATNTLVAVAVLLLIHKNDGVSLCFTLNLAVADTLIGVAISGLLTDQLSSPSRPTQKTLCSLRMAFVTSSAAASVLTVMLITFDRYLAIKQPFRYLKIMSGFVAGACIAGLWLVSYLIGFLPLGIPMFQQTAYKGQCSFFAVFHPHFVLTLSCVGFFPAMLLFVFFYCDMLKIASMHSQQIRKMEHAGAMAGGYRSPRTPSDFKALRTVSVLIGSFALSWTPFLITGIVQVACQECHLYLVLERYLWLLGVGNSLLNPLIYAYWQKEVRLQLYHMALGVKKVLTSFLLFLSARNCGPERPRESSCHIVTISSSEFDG
Type: cell-based
Procedure: This assay was developed using a stable cell line expressing GPR119, generated as follows. GPR119 (co-pending, co-owned patent application U.S. Ser. No. 11/964,461) was cloned into Gateway pDEST 40vector (Invitrogen), using the Gateway cloning system (invitrogen) according to the manufacturer's instructions. A stable cell line was generated by transfecting a 10 cm plate of CHO cells (source) with Bug of this construct using Transit-CHO transfection kit (Minis). CHO cells were plated the day prior to transfection at a density of 3,000,000 cells/plate. Clones were selected using the antibiotic G418 at 500 ug/ml. 23 clones were picked and assayed for the expression of the receptor by measuring changes in intracellular cAMP levels in response to a known GPR119 agonist.
To measure cAMP activity in response to GPR119 agonist, the clones were plated in 96 well plates at 17500 cells per well. On the day after plating, cells were incubated with the GPR119 agonist at 10 μM for 30 minutes in Ham's F12 Media (Gibco) with 0.04% DMSO. cAMP was measured using the cAMP dynamic kit from Cis Bio (Bedford, Mass.) according to the manufacturer's instructions. Briefly, cells were lysed, and cAMP levels determined by competitive immunoassay using D2 labeled cAMP, and europium cryptate tagged anti cAMP antibody. When in close proximity, the D2 and europium cryptate undergo fluorescence resonance energy transfer (FRET), which is measured as a fluorescence ratio (665 nm/620 nm). Unlabelled cAMP in the cell lysate competed with the D2 labeled cAMP for the europium crypate labeled antibody. The resulting decrease in FRET signal corresponded to intracellular cAMP levels. Fluorescence was read on a BMG Labtech PHERAstar, software version 1.50.
The clone with the greatest response to GPR119 agonist was selected for the screening assay.
Compounds were dissolved in 100% DMSO to a concentration of […] to provide stock solutions. To determine activity against GPR119, compounds were incubated with GPR119 stably expressing cells (described above), at 6-8 concentrations ranging from 0.00003 to 10 micromolar, in 96 well plates, in 50 ul of Ham's F12 media for 30 minutes. Cells were plated at 17500 cells per well 1 day before running the assay. All compounds were also screened against the parental CHO cells. cAMP was measured using the cAMP dynamic kit from Cis Bio (Bedford, Mass.), according to the manufacturer's instructions. Briefly, cells were lysed and cAMP levels determined by competitive immunoassay using D2 labeled cAMP, and europium cryptate tagged anti cAMP antibody. When in close proximity, the D2 and europium cryptate undergo fluorescence resonance energy transfer (FRET), which is measured as a fluorescence ratio (665 nm/620 nm). Unlabelled cAMP in the cell lysate competed with the D2 labeled cAMP for the europium crypate labeled antibody. The resulting decrease in FRET signal corresponded to intracellular cAMP levels.
To determine percent activity for a tested compound, the FRET signal value obtained at a particular concentration are compared to the Maximal FRET signal value obtained for 5-Ethyl-2-{4-[4-(4-tetrazol-1-yl-phenoxymethyl)-thiazol-2-yl]-piperidin-1-yl}-pyrimidine. The maximal activity of 5-Ethyl-2-{4-[4-(4-tetrazol-1-yl-phenoxymethyl)-thiazol-2-yl]-piperidin-1-yl}-pyrimidine is designated as 100% activity. Typically, the concentration of 5-Ethyl-2-{4-[4-(4-tetrazol-1-yl-phenoxymethyl)-thiazol-2-yl]-piperidin-1-yl}-pyrimidine in the assay was approximately 0.1 μM. The synthesis of 5-Ethyl-2-{4-[4-(4-tetrazol-1-yl-phenoxymethyl)-thiazol-2-yl]-piperidin-1-yl}-pyrimidine is disclosed in co-owned pending U.S. patent application Ser. No. 11/964,461, herein incorporated by reference. Activities of compounds in Table 1 below are expressed as % activity at 3 μM compound compared to the maximal activity of 5-Ethyl-2-{4-[4-(4-tetrazol-1-yl-phenoxymethyl)-thiazol-2-yl]-piperidin-1-yl}-pyrimidine at 3 μM.

Going from `CC(C)(C)OC(=O)N1CCC(c2cc(COc3ccc(-n4cnnn4)cc3F)ccn2)CC1` [Example 14, tert-Butyl 4-(4-((2-fluoro-4-(1H-tetrazol-1-yl)phenoxy)methyl)pyridin-2-yl)piperidine-1-carboxylate] to `CC(C)(C)OC(=O)N1CCC(c2cccc(COc3ccc(-n4cnnn4)cc3F)n2)CC1` [Example 4, tert-Butyl 4-(6-((2-fluoro-4-(1H-tetrazol-1-yl)phenoxy)methyl)pyridin-2-yl)piperidine-1-carboxylate], the “% Activity at 3 μM Compound” value falls from 73% to 61%.

Compared with `CC(C)(C)OC(=O)N1CCC(c2cccc(COc3ccc(S(C)(=O)=O)cc3F)n2)CC1` [Example 2, tert-Butyl 4-(6-((2-fluoro-4-(methylsulfonyl)phenoxy)methyl)pyridin-2-yl)piperidine-1-carboxylate], `CC(C)c1noc(C(=O)N2CCC(c3cccc(COc4ccc(S(C)(=O)=O)cc4F)n3)CC2)n1` [Example 13, (4-(6-((2-fluoro-4-(methylsulfonyl)phenoxy)methyl)pyridin-2-yl)piperidin-1-yl)(3-isopropyl-1,2,4-oxadiazol-5-yl)methanone] is lower in “% Activity at 3 μM Compound” value: 59% for the first, 33% for the second.

First: CC(C)(C)OC(=O)N1CCC(c2cccc(OCc3ccc(S(C)(=O)=O)cc3)c2)CC1 [Example 9, tert-Butyl 4-(3-(4-(methylsulfonyl)benzyloxy)phenyl)piperidine-1-carboxylate]
Second: CCc1cnc(N2CCC(c3cccc(OCc4ccc(S(C)(=O)=O)cc4)c3)CC2)nc1 [Example 10, 5-ethyl-2-(4-(3-(4-(methylsulfonyl)benzyloxy)phenyl)piperidin-1-yl)pyrimidine]
The “% Activity at 3 μM Compound” value of the first is higher: 61% for the first, 59% for the second.

Compared with `CCc1cnc(N2CCC(c3cccc(COc4ccc(-n5cnnn5)cc4F)n3)CC2)nc1` [Example 5, 5-ethyl-2-(4-(6-((2-fluoro-4-(1H-tetrazol-1-yl)phenoxy)methyl)pyridin-2-yl)piperidin-1-yl)pyrimidine], `Fc1cc(-n2cnnn2)ccc1OCc1cccc(C2CCN(c3ncc(C(F)(F)F)cn3)CC2)n1` [Example 6, 2-(4-(6-((2-fluoro-4-(1H-tetrazol-1-yl)phenoxy)methyl)pyridin-2-yl)piperidin-1-yl)-5-(trifluoromethyl)pyrimidine] is lower in “% Activity at 3 μM Compound” value: 73% for the first, 63% for the second.

With `CC(C)(C)OC(=O)N1CCC(c2nccc(COc3ccc(-n4cnnn4)cc3F)n2)CC1` [Example 7, tert-Butyl 4-(4-((2-fluoro-4-(1H-tetrazol-1-yl)phenoxy)methyl)pyrimidin-2-yl)piperidine-1-carboxylate] the “% Activity at 3 μM Compound” value was 70%.
